According to US20050251869A1, “Animal model for raising HDL-cholesterol with niacin” (priority 2004, published 2005):
Like-named read-outs stand apart in the source and are kept apart here.

Tests used:
[1] = system: wild type C57BI/6J control mice; conditions: for change in HDL-C compared with untreated WT mice: 1% niacin in diet
Description: (§1) Materials: The mice used in these studies were pathogen-free C57BI/6J mice of the following genotypes: (1) wild type; (2) hemizygous human CETP-transgenic (hCETP-tg); (3) hemizygous human apoB100-transgenic, and 4) hemizygous human CETP and apoB100 dual-transgenic mice. The transgenic mice were purchased from Taconic Laboratories, Germantown, N.Y., where they were generated by introduction of genomic DNA fragments that drive expression of human CETP and/or apoB100 in the mouse liver (8-10).
(§2) Methods: Male mice (hCETP-tg and wild type C57BI/6J control mice; ˜10 weeks of age; 5-7/group) were used in this study. The mice were fed a normal rodent chow diet (Purina 7012) along with varying levels of niacin (milled with diet, expressed as % by weight of diet). They were housed with normal lighting and were allowed access to food and water ad lib. Blood samples were obtained by retro-orbital plexus at one, two and three weeks of treatment. After the fourth week of treatment, the mice were fasted for four hours and then euthanized. After euthanization, blood samples were collected by cardiac puncture. Serum lipids (total cholesterol, HDL-cholesterol, TG and FFA, and lipoprotein profiles) were determined. Serum samples from four weeks of treatment were also measured for CETP enzyme activity.

[2] = system: hemizygous human CETP-transgenic (hCETP-tg) mice; assay: Example 1: four-week niacin-in-diet study, serum lipids, hCETP-tg mice; format: in vivo, mouse; conditions: for change in HDL-C compared with untreated h-CETP-tg mice: 1% niacin in diet
Description: as §1, §2

[3] = system: hCETP-tg mice; conditions: for increase of HDL-C / reduction of TG: 1% niacin in diet
Description: as §2
Blood samples were obtained by retro-orbital plexus after one week of treatment, as in Example 1. After two weeks of treatment, the mice were fasted for four hours and then euthanized. Blood samples were collected by cardiac puncture. Serum lipids (total cholesterol, HDL-cholesterol, total triglyceride and FFA) were determined.

[4] = system: human ApoB 100 transgenic mice; conditions: experiments similar to Examples 1 and 2
Description: as §1

[5] = system: hemizygous human-CETP/ApoB100 dual transgenic mice
Description: Methods: This example is a study of the lipid modulating effect of niacin in human CETP and Apo-B100 dual transgenic mice. These mice have a more human-like lipoprotein profile than WT mice, with a lower HDUnon-HDL-C ratio.
Mice (hemizygous human-CETP/ApoB100 dual transgenic mice, ˜10 weeks of age, 7-8/group) were fed a normal rodent chow diet (Purina 7012) along with varying levels of niacin (milled with the feed). They were housed with normal lighting and were allowed access to food and water ad lib. Blood samples were obtained by retro-orbital plexus after one week of treatment. After two weeks of treatment, the mice were fasted for four hours and then euthanized. Blood samples were collected by cardiac puncture. Serum lipids (total cholesterol, HDL-cholesterol, TG and FFA, and lipoprotein profiles) were determined.

[6] = system: human-CETP/human-apoA1 dual-transgenic mice; conditions: 1% niacin in diet, one week
Description: In addition, hemizygous human-CETP/human-apolipoprotein A1 dual-transgenic mice were generated by cross-breeding homozygous human-CETP transgenic male mice, purchased from Taconic, with homozygous human-apolipoprotein A1 transgenic female mice, purchased from Jackson Laboratories.
Methods: Mice used in this study express both human CETP and human apolipoprotein A1 genes. The mice were generated by cross-breeding homozygous human-CETP transgenic male mice with homozygous female human-apolipoprotein A1-transgenic mice. Female mice (˜10 weeks of age, 10/group) were fed a normal rodent chow diet (Purina 7012) with or without 1% niacin (milled with the feed). They were housed with normal lighting and were allowed access to food and water ad lib. After seven days of treatment, the mice were fasted for four hours and then euthanized. Blood samples were collected by cardiac puncture. Serum lipids (total cholesterol, HDL-cholesterol, TG and FFA, and lipoprotein profiles) were determined.

[7] = hCETP-tg mice, niacin in diet, appears dose-dependent
[8] = lipoprotein profiles by size exclusion chromatography
[9] = one week of treatment with niacin in diet
[10] = size exclusion chromatography, after two weeks of treatment

Structure (SMILES): O=C(O)c1cccnc1 [niacin, nicotinic acid]
- change in HDL-C compared with untreated WT mice ([1]; 1 week): −9%
- change in HDL-C compared with untreated WT mice ([1]; 2 weeks): −17%
- change in HDL-C compared with untreated WT mice ([1]; 3 weeks): −13%
- change in HDL-C compared with untreated WT mice ([1]; 4 weeks): −7%
- serum lipids, including TG, total cholesterol, HDL-C, non-HDL-C, and FFA ([1]; wild-type control mice, niacin in diet): broad reduction
- change in HDL-C compared with untreated h-CETP-tg mice ([2]; 1 week): +40%
- change in HDL-C compared with untreated h-CETP-tg mice ([2]; 2 weeks): +38%
- change in HDL-C compared with untreated h-CETP-tg mice ([2]; 3 weeks): +37%
- change in HDL-C compared with untreated h-CETP-tg mice ([2]; 4 weeks): +23%
- FFA [2, 7]: reduction
- HDL-cholesterol [2, 7]: increase
- TG [2, 7]: reduction
- non-HDL cholesterol [2, 7]: reduction
- TG in the VLDL fractions [2, 8]: decline
- cholesterol in the HDL fractions [2, 8]: rise
- increase of HDL-C ([3]; one week of treatment): 35%
- reduction of TG ([3]; one week of treatment): 44%
- increase of HDL-C ([3]; two weeks of treatment): 37%
- reduction of TG ([3]; two weeks of treatment): 45%
- HDL particle size [3, 8]: without significant change
- TG contents of VLDL, LDL and HDL particles [3, 8]: all reduced
- cholesterol content in the HDL particles [3, 8]: increase
- cholesterol content of the LDL and VLDL particles [3, 8]: reduced
- level of HDL-C [4]: does not raise
- increase in HDL-C ([5]; 0.1% niacin in diet, two weeks): 41%
- decrease in HDL-C ([5]; 0.3% niacin in diet, two weeks): 5%
- increase in HDL-C ([5]; 1% niacin in diet, two weeks): 15%
- TC and TG [5, 9]: decrease
- amount of HDL-C [5, 9]: without a significant change
- TG in the VLDL and LDL fractions [5, 10]: decrease
- cholesterol in the HDL fractions [5, 10]: increase
- cholesterol in the LDL fractions [5, 10]: decrease
- elevation of HDL-C ([6]; female mice): ~38%
- reduction of TG ([6]; female mice): 53%
- reduction of non-HDL-C ([6]; female mice): 39%
- Non-HDL-C ([6]; male mice): did not change significantly
- elevation of HDL-C ([6]; male mice): 27%
- reduction of TG ([6]; male mice): 36%
